Measured values taken from patent US20110003753A1, “COMPOSITIONS AND METHODS FOR DISRUPTING THE FUNCTION OF THE TRANSCRIPTIONAL REPRESSOR COMPONENT Sin3A-PAH2 DOMAIN TO INDUCE DIFFERENTIATION AND GROWTH INHIBITION IN BREAST CANCER” (SAMUEL WAXMAN CANCER RESEARCH FOUNDATION, priority 2009, published 2011).
Each block holds one molecule with its values, some of them ahead of it.

How the values were obtained:
[1] = test system: MDA-MB-231 cells transfected with SID; assay: Proliferation assay (MTT) for ERα and RAR activation; assay type: cell-based, human; settings: SID-transfected MDA-MB-231; for growth inhibition (MTT): daily for 48 hrs
Text: FIG. 5: A. Schematic representations of the promoters and 5′ untranslated regions (5′UTR) of CDH1 and ESR1 used in this study. Positions of CpG dinucleotides are indicated by grey ticks and the transcription initiation sites are represented by black arrows. The relative positions of primer pairs used to PCR amplify immunoprecipitated DNA from ChIP analysis and bisulfite-modified DNA are also indicated. B. H3K4me3 levels on the CDH1 and ESR1 promoter regions increase dramatically in response to SID. ChIP analysis was performed with chromatin from wild type or stably transfected MDA-MB-231 cells as indicated. Cross-linked protein-DNA complexes were immunoprecipitated with an anti-trimethyl H3K4 antibody and amplified by real-time PCR. Results are shown as percentage of input DNA. The RPL30 housekeeping gene is shown as a control. C. Real-time PCR analysis of CDH1 and ESR1 gene expression. Values are shown as molecules per μg total RNA and were derived from the ΔCt between the GAPDH housekeeping gene and the gene of interest. The amount of GAPDH molecules per μg total RNA was determined by absolute quantification. D. The CDH1 and ESR1 promoters undergo demethylation in response to SID. Following bisulfite modification of wild type or stably transfected MDA-MB-231 cells as indicated, specifically amplified PCR products were sequenced using primers corresponding to the promoter/5′UTR of ESR1. Positions of CpG dinucleotides are indicated by grey ticks and the transcription initiation sites are indicated by black arrows. […] Unmethylated CpGs are by represented open circles. CpG positions are shown relative to transcription initiation site. E. Functional assays for ERα and RAR activation. […]
For activation of RARs […] ATRA (all-trans-retinoic acid, pan-RAR agonist) or 100 nM Am580 (retinoibeozoic acid, RARα-specific agonist) was used daily for 48 hours. Cell proliferation was determined by MTT (Thiazolyl Blue Tetrazolium Bromide) colorimetric assay following standard protocols (Invitrogen). The optical density (OD) of reduced MTT was assessed at 570 nm versus 620/630 nm after 4 hr at 37° C. […]

[2] = biological target: GAL4 DBD-Sin3B (fusion of Sin3B with GAL4 DNA binding domain) (UniProt P04386); assay: cell-based or functional assay
Sin3B and MAD = assay: Mammalian two-hybrid assay, GAL4 DBD-Sin3B and VP16AD-MAD in 293T cells; assay type: cell-based; settings: 15 μM peptide applied to the cell culture medium
Text: FIG. 2: SID decoy peptide blocks interactions between Sin3 PAH2 and MAD and interferes with recruitment of members of the Sin3 co-repressor complex. A. GST pull-down of MAD by the Sin3A PAH2 domain is blocked by SID peptide. Sin3A PAH2 domain (amino acids 306-450) was expressed in E. coli as a GST fusion and used in a pull down assay for in vitro interaction with 35S-methionine labeled MAD (left panel) or MAD immunoprecipitated from MDA-MB-231 cell lysates (right panel). 25% of input is shown for in vitro translated MAD and 10% of input for immunoprecipitated MAD (input). Assays were performed using 15 μM Tat-SID or Tat-SID^SCR peptide unless otherwise indicated. […] 293T cells were transfected with GAL4^uas×5-Tk-Luc reporter together with mammalian two-hybrid vectors expressing a fusion of Sin3B with GAL4 DNA binding domain (GAL4^DBD) and fusions of MAD and HDAC1 (columns 5-12 and 14-21, respectively) with VP16 activation domain (VP16^AD), as well as SID expression vectors, as indicated. […]
24 hours prior to transfection, 293T cells were plated at 50-60% confluence on 48-well plates. […] 48 hours post-transfection luciferase activity was measured using the Dual Luciferase assay system (Promega) on a Mithras LB940 plate reader (Berthold Technologies). […]

MDA-MB-231 cells = assay: Three-dimensional morphogenesis assay in Matrigel; assay type: cell-based, human; settings: 5 μM peptide; Matrigel 3D culture; colonies counted after 10 days of treatment
Description: FIG. 3: A. Morphogenesis in 3D cultures in Matrigel. MDA-MB-231 and MMTV-Myc cells expressing SID or the double mutant were cultured in 3D-Matrigel for 14 days. […] B. Reversion of the invasive phenotype of the MDA-MB-231 cells in Matrigel 3D cultures. Upper panel indicates change in numbers of invasive versus non invasive colonies (as indicated in crosshatched and non-crosshatched bars, respectively) in the presence of different concentrations (as indicated) of cell penetrating SID or SID^SCR (scrambled control) peptide. The colonies were counted after 10 days of treatment with a medium containing fresh peptide changed every 24 hours. […] The reduction in invasive phenotype was quantified by counting 5 low magnification fields per well done in triplicates (upper panel). The p value was calculated using the unpaired Student t test.
3D cultures of MDA-MB-231 and MMTV-Myc cells stably transfected with pEGFP-SID, pEGFP-SID2Mut or the parent vector pEGFP-N3 were prepared as described by Debnath et al. (Debnath et al2003). Briefly, […] of growth factor depleted Matrigel (BD Biosciences) was applied on 8-well multichamber slides (BD Biosciences) and incubated at 37° C. for 30 minutes. Once the Matrigel solidified 5×10^3 cells were seeded on top of the gels in assay medium containing 2% Matrigel and 20 ng/ml […]. Growth medium was changed daily for 14 days. Once colony formation was evident, the SID or the scramble control peptide was added to the MDA-MB-231 parental cells in the medium starting at day 3. The morphology of the colonies was determined by confocal microscopy. Induction of apoptosis was determined by staining colonies with activated caspase-3 antibody (BD Transduction Labs) and cell polarization by staining with anti-GM130 antibody (BD Transduction Labs). Cell nuclei were visualized by DAPI (Sigma) staining. […]

GAL4 DBD-Sin3B (fusion of Sin3B with GAL4 DNA binding domain), sequence (P04386 1-147): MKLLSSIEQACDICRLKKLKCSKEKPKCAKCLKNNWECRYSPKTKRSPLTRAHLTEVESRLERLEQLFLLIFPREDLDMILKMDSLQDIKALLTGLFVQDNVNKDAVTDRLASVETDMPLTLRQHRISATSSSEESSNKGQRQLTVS

Molecule: CC1=C(/C=C/C(C)=C/C=C/C(C)=C/C(=O)O)C(C)(C)CCC1 [ATRA, all-trans-retinoic acid]
growth inhibition (MTT) ([1]; 1 uM): significant growth inhibition

Molecule: CC/C(=C(\c1ccccc1)c1ccc(OCCN(C)C)cc1)c1ccccc1 [tamoxifen]
prevention of E2 growth stimulation (MTT) ([1]; 2.5 μM tamoxifen plus E2): prevention of E2 growth stimulation

Molecule: AM580
growth inhibition (MTT) ([1]; 100 nM): significant growth inhibition

Molecule: FLAG-tagged SID (6.6 kDa), expressed from pSID (peptide)
relative luciferase activity, mammalian two-hybrid with GAL4 DBD-Sin3B and VP16AD-MAD (fold increase) [2]: 2

relative luciferase activity, mammalian two-hybrid with GAL4 DBD-Sin3B and VP16AD-MAD (fold increase) [2]: 2
Molecule: TetR-SID fusion (28.4 kDa), expressed from pTHE

Molecule: VP16AD-MAD (VP16 activation domain as in-frame fusion with full-length MAD) (from UniProt Q05195 1-221)
relative luciferase activity, mammalian two-hybrid (GAL4UASx5-Tk-Luc reporter, 293T cells) (fold decrease) [2]: 5

Molecule: YGRKKRRQGGGEQRARRIMERLLEYNMVADL [scrambled control, reference compound]
increase in luciferase activity compared to GAL4 DBD-Sin3B and VP16AD-MAD co-expression (Sin3B and MAD): nor addition of scrambled control peptide led to an increase in luciferase activity | decrease in number of colonies with invasive phenotype (MDA-MB-231 cells): did not exert this effect
